Measured values published in patent US8729269B2, “Substituted piperidino phenyloxazolidinones having antimicrobial activity with improved in vivo efficacy” (Wockhardt Limited, priority 2003, dated 2014).
≈ marks a conversion by molar mass, not a printed value.

Legend:
[1] = tested on: Methicilin resistant Staphylococcus aureus 32 (MRSA 32); test: Minimum Inhibitory Concentration (MIC) determination, agar dilution; assay type: cell-based; conditions: Mueller Hinton agar, 24 hrs at 35° C.
Procedure: (§1) Overnight grown cultures of Methicilin resistant Staphylococcus aureus 32 (MRSA 32), Methicilin resistant Staphylococcus epidermidis 118 (MRSE 118), Vancomycin resistant enterococci 303 (VRE 303) in Tryptic Soya broth were diluted in Mueller Hinton Broth to give optical density matching with MacFarland tube 0.5 standard. Cultures were further diluted 1:10 in Mueller Hinton broth. Using Denley's multipoint inoculator, 10^4 cells were deposited on Mueller Hinton agar (Difco) containing range of 2 fold dilutions of test compounds. These plates were incubated for 24 hrs at 35° C. and MIC results recorded. MIC is defined as minimum drug concentration that inhibits test organisms. For determining MIC of test compounds against Streptococcus pneumoniae 49619 (SPN 49619) and Streptococcus pyogenes 801 (SPY 801), Mueller Hinton agar containing 5% sheep blood was employed.

[2] = tested on: Methicilin resistant Staphylococcus epidermidis 118 (MRSE 118); test: as above; assay type: cell-based; conditions: Mueller Hinton agar, 24 hrs at 35° C.
Procedure: as §1

[3] = tested on: Vancomycin resistant enterococci 303 (VRE 303); test: as above; assay type: cell-based; conditions: Enterococcus, Mueller Hinton agar, 24 hrs at 35° C.
Procedure: as §1

[4] = tested on: Streptococcus pneumoniae 49619 (SPN 49619); test: Minimum Inhibitory Concentration (MIC) determination, agar with 5% sheep blood; assay type: cell-based; conditions: Mueller Hinton agar containing 5% sheep blood
Procedure: as §1

[5] = tested on: Streptococcus pyogenes 801 (SPY 801); test: as above; assay type: cell-based; conditions: Mueller Hinton agar containing 5% sheep blood
Procedure: as §1

[6] = tested on: methicillin resistant Staphylococcus aureus strain MRSA 32; test: Murine Assay Procedure (in vivo efficacy, MRSA 32 infection); conditions: swiss mice infected intraperitoneally with MRSA 32, oral gavage 1 h after infection, repeat dose 3 hrs later, percentage survival on Day 7
Procedure: Oxazolidinone new chemical entities (NCEs) were evaluated for their in vivo efficacy in a murine infection caused by multi-drug resistant, methicillin resistant Staphylococcus aureus strain, referred to as MRSA 32, a clinical isolate obtained from a hospitalized patient. The procedure used for the murine assay is as follows:
Four weeks old swiss mice of 18-22 gm body weight were infected with MRSA 32 strain suspended in 5% Hog gastric mucin. The infecting dose of bacteria was set at 1-2×10^8 CFU/animal. The infecting dose was administered in 0.5 ml volume injected into peritonial cavity of mice. The treatment with oxazolidinone NCEs was started one hour after infection by administering 100-200 μl of the suspensions of oxazolidinone compounds in 5% Tween 80 by oral gavage. A repeat dose was similarly administered 3 hrs later. Each oxazolidinone NCE was tested at 2-3 different dosages in the range of 2.5 mg/kg to 20 mg/kg. In each dose group 6 mice were included. As an infection control group 12 mice were infected with MRSA 32 strain without giving any treatment. For compounds affording protection of MRSA infected mice, ED50 dosages were calculated on the basis of percentage survival on Day 7 after infection.

Structure (SMILES)	MIC [1] [µg/mL]	MIC [2] [µg/mL]	MIC [3] [µg/mL]	MIC [4] [µg/mL]	MIC [5] [µg/mL]	ED50 [6] [mg/kg]
CC(=O)NC[C@H]1CN(c2ccc(N3CCC4(CC3)C[C@H]4C#N)c(F)c2)C(=O)O1 [Example 98, (1R,5S)—N-{3-[4-(1-cyano-6-aza-spiro[2.5]oct-6-yl)-3-fluorophenyl]-2-oxo-oxazolidin-5-ylmethyl}-acetamide]	2 (≈ 5.18 µM)	1 (≈ 2.59 µM)	2 (≈ 5.18 µM)	1 (≈ 2.59 µM)	1 (≈ 2.59 µM)	5
CC(=O)NC[C@H]1CN(c2ccc(N3CCC4(CC3)C[C@@H]4C#N)c(F)c2)C(=O)O1 [Example 99, (1S,5S)—N-{3-[4-(1-cyano-6-aza-spiro[2.5]oct-6-yl)-3-fluorophenyl]-2-oxo-oxazolidin-5-ylmethyl}-acetamide]	2 (≈ 5.18 µM)	1 (≈ 2.59 µM)	2 (≈ 5.18 µM)	0.5 (≈ 1.29 µM)	0.5 (≈ 1.29 µM)	5
CC(=O)NC[C@H]1CN(c2ccc(N3CCC4(CC3)NCC[S+]4[O-])c(F)c2)C(=O)O1 (stereo partly drawn) [Example 112, (S)—N-{3-[4-(4,8-diaza-1-sulfinyl-spiro[4.5]dec-8-yl)-3-fluorophenyl]-2-oxo-oxazolidin-5-ylmethyl}-acetamide]	4 (≈ 9.42 µM)	1 (≈ 2.36 µM)	2 (≈ 4.71 µM)	2 (≈ 4.71 µM)	2 (≈ 4.71 µM)	10
CC(=O)NC[C@H]1CN(c2ccc(N3CCC4(CC3)SCCN4C)c(F)c2)C(=O)O1 [Example 113, (S)—N-{3-[4-(8-aza-1-thia-4-(N-methyl)-spiro[4.5]dec-8-yl)-3-fluorophenyl]-2-oxo-oxazolidin-5-ylmethyl}-acetamide]	4 (≈ 9.47 µM)	1 (≈ 2.37 µM)	4 (≈ 9.47 µM)	2 (≈ 4.73 µM)	2 (≈ 4.73 µM)	10
CC(=O)NC[C@H]1CN(c2ccc(N3CCC4(CC3)COCO4)c(F)c2)C(=O)O1 [Example 125, (S)—N-{3-[4-(1,3-dioxa-8-aza-spiro[4.5]dec-8-yl)-3-fluorophenyl]-2-oxo-oxazolidin-5-ylmethyl}-acetamide]	4 (≈ 10.2 µM)	2 (≈ 5.08 µM)	4 (≈ 10.2 µM)	2 (≈ 5.08 µM)	2 (≈ 5.08 µM)	10
CS(=O)(=O)OC[C@H]1CN(c2ccc(N3CCC4(CC3)COCO4)c(F)c2)C(=O)O1 [Example 129, (R)—N-{3-[4-(1,3-dioxa-8-aza-spiro[4.5]dec-8-yl)-3-fluorophenyl]-2-oxo-oxazolidin-5-ylmethyl}-methanesulfonate]	8 (≈ 18.6 µM)	4 (≈ 9.29 µM)	16 (≈ 37.2 µM)	8 (≈ 18.6 µM)	8 (≈ 18.6 µM)	5
CC(=O)NC[C@H]1CN(c2cc(F)c(N3CCC4(CC3)OCCO4)c(F)c2)C(=O)O1 [Example 130, (S)—N-{3-[4-(1,4-dioxa-8-aza-spiro[4.5]dec-8-yl)-3,5-difluorophenyl]-2-oxo-oxazolidin-5-ylmethyl}-acetamide]	4 (≈ 9.72 µM)	2 (≈ 4.86 µM)	4 (≈ 9.72 µM)	2 (≈ 4.86 µM)	2 (≈ 4.86 µM)	5
CC(=O)NC[C@H]1CN(c2ccc(N3CCC4(OCCO4)C(F)C3)c(F)c2)C(=O)O1 (stereo partly drawn) [Example 133, (S)—N-{3-[4-(1,4-dioxa-6-fluoro-8-aza-spiro[4.5]dec-8-yl)-3-fluorophenyl]-2-oxo-oxazolidin-5-ylmethyl}-acetamide]	4 (≈ 9.72 µM)	2 (≈ 4.86 µM)	4 (≈ 9.72 µM)	2 (≈ 4.86 µM)	2 (≈ 4.86 µM)	5
CS(=O)(=O)OC[C@H]1CN(c2cc(F)c(N3CCC4(CC3)OCCO4)c(F)c2)C(=O)O1 [Example 146, (R)—N-{3-[4-(1,4-dioxa-8-aza-spiro[4.5]dec-8-yl)-3,5-difluorophenyl]-2-oxo-oxazolidin-5-ylmethyl}-methanesulfonate]	4 (≈ 8.92 µM)	2 (≈ 4.46 µM)	4 (≈ 8.92 µM)	4 (≈ 8.92 µM)	4 (≈ 8.92 µM)	2.5
CC(=O)NC[C@H]1CN(c2ccc(N3CCC4(CC3)COCCO4)c(F)c2)C(=O)O1 [Example 160, (S)—N-{3-[4-(1,4-dioxa-9-aza-spiro[5.5]undec-9-yl)-3-fluorophenyl]-2-oxo-oxazolidin-5-ylmethyl}-acetamide]	4 (≈ 9.82 µM)	1 (≈ 2.45 µM)	8 (≈ 19.6 µM)	4 (≈ 9.82 µM)	4 (≈ 9.82 µM)	10
CC(=O)NC[C@H]1CN(c2ccc(N3CCC4(CC3)COCCCO4)c(F)c2)C(=O)O1 [Example 164]	4 (≈ 9.49 µM)	2 (≈ 4.75 µM)	8 (≈ 19 µM)	4 (≈ 9.49 µM)	4 (≈ 9.49 µM)	10
CS(=O)(=O)OC[C@H]1CN(c2ccc(N3CCC(=O)CC3)c(F)c2)C(=O)O1 [Example 168, (R)—N-{3-[4-(4-oxo-piperidin-1-yl)-3-fluorophenyl]-2-oxo-oxazolidin-5-ylmethyl}-methanesulfonate]	4 (≈ 10.4 µM)	2 (≈ 5.18 µM)	4 (≈ 10.4 µM)	4 (≈ 10.4 µM)	4 (≈ 10.4 µM)	10
CS(=O)(=O)OC[C@H]1CN(c2cc(F)c(N3CCC(=O)CC3)c(F)c2)C(=O)O1 [Example 169, (R)—N-{3-[4-(4-oxo-piperidin-1-yl)-3,5-difluorophenyl]-2-oxo-oxazolidin-5-ylmethyl}-methanesulfonate]	0.5 (≈ 1.24 µM)	0.25 (≈ 0.618 µM)	1 (≈ 2.47 µM)	0.5 (≈ 1.24 µM)	2 (≈ 4.95 µM)	10
CS(=O)(=O)OC[C@H]1CN(c2ccc(N3CCC(O)CC3)c(F)c2)C(=O)O1 [Example 172, (R)—N-{3-[4-(4-hydroxy-piperidin-1-yl)-3-fluorophenyl]-2-oxo-oxazolidin-5-ylmethyl}-methanesulfonate]	8 (≈ 20.6 µM)	8 (≈ 20.6 µM)	16 (≈ 41.2 µM)	> 8	> 8	10
CS(=O)(=O)OC[C@H]1CN(c2cc(F)c(N3CCC(O)CC3)c(F)c2)C(=O)O1 [Example 173, (R)—N-{3-[4-(4-hydroxy-piperidin-1-yl)-3,5-difluorophenyl]-2-oxo-oxazolidin-5-ylmethyl}-methanesulfonate]	2 (≈ 4.92 µM)	2 (≈ 4.92 µM)	4 (≈ 9.84 µM)	2 (≈ 4.92 µM)	4 (≈ 9.84 µM)	5
CC(=O)NC[C@H]1CN(c2ccc(N3CCC(O)(CN=[N+]=[N-])CC3)cc2)C(=O)O1 [Example 178, (S)—N-{3-[4-(4-azidomethyl-4-hydroxy-piperidin-1-yl)-phenyl]-2-oxo-oxazolidin-5-ylmethyl}-acetamide]	4 (≈ 10.3 µM)	2 (≈ 5.15 µM)	8 (≈ 20.6 µM)	4 (≈ 10.3 µM)	4 (≈ 10.3 µM)	10
CC(=O)NC[C@H]1CN(c2cc(F)c(N3CCC(O)(CN=[N+]=[N-])CC3)c(F)c2)C(=O)O1 [Example 186, (S)—N-{3-[4-(4-Azidomethyl-4-hydroxypiperidin-1-yl)-3,5-difluorophenyl]-2-oxo-oxazolidin-5-ylmethyl}-acetamide]	2 (≈ 4.71 µM)	1 (≈ 2.36 µM)	2 (≈ 4.71 µM)	1 (≈ 2.36 µM)	1 (≈ 2.36 µM)	5
